ChEMBL document CHEMBL4616584, “Designing around Structural Alerts in Drug Discovery” (J Med Chem, 2020)

Columns and labels:
[1] = Half life of the compound at pH 7.4; format: physicochemical
[2] = Half life of the compound in buffer; format: physicochemical
[3] = in vitro; details: human, platelets
[4] = Half life of the compound; format: physicochemical
[5] = Covalent protein binding in human liver microsomes assessed per mg protein at 10 uM preincubated for 5 mins followed by UDPGA addition and measured after 60 mins by liquid scintillation counting method; format: ADME, Microsome; details: 1 h
[6] = Half life in potassium phosphate buffer by liquid chromatography-tandem mass spectrometry; format: physicochemical
[7] = Covalent protein binding in human liver microsomes assessed per mg protein at 50 uM after 60 mins in presence of NADPH by LC-MS/MS method; format: ADME, Microsome; details: 1 h

Work on `NC(=O)OCC(C=O)c1ccccc1` (configuration not stated) yielded a half-life [1] of under 0.5 min.
With `Cc1cc(OCCCS(C)(=O)=O)cc(C)c1-c1cccc(COc2ccc3c(c2)OC[C@H]3CC(=O)O[C@H]2O[C@@H](C(=O)O)[C@H](O)[C@H](O)[C@@H]2O)c1` the half-life [2] was 30 min.
Compound `COC(=O)[C@H](c1ccccc1Cl)N1CCc2sccc2C1` [CLOPIDOGREL] has a fraction unbound [3] of 0.98.
Work on `CC(C)Cc1ccc(CC(=O)O)cc1` [IBUFENAC] yielded a half-life [4] of 66 min and a PB [5] of 1000 to 8600 pmol.
Work on `CC(C)Cc1ccc(C(C)C(=O)O)cc1` (configuration not stated) [IBUPROFEN] yielded a PB [5] of 1000 to 8600 pmol.
For `Cc1ccc(Cl)c(Nc2ccccc2C(=O)O)c1Cl` [MECLOFENAMIC ACID], the half-life [6] was 1690 min.
With `Cc1cccc(Nc2ccccc2C(=O)O)c1C` [MEFENAMIC ACID] the half-life [6] was 990 min.
Work on `Cc1cnc(NC(=O)C2=C(O)c3ccccc3S(=O)(=O)N2C)s1` [MELOXICAM] yielded a PB [7] of 3.6 pmol.
For `CCCN(CCC)S(=O)(=O)c1ccc(C(=O)O)cc1` [PROBENECID], the half-life [6] was 16.2 min.
Compound `CN1C(C(=O)Nc2nccs2)=C(O)c2ccccc2S1(=O)=O` [SUDOXICAM] has a PB [7] of 1.4 pmol.
Compound `Cc1cc(CC(=O)O)n(C)c1C(=O)c1ccc(Cl)cc1` [ZOMEPIRAC] has a half-life [2] of 30 min.
